Measurements from patent US12180139B2, “Method for preparing aminoalkanoic acid derivative containing biphenyl group” (AMTIXBIO CO., LTD., priority 2019, dated 2024).

Key:
A. fumigatus [1] = test system: A. fumigatus
Procedure: (§1) Fungal cells were spread on YPD solid media (Sigma-Aldrich) and then aliquoted into the wells of the 96-well plates (2.5×10^3 microconidia/ ? for T. rubrum and T. mentagrophytes species or was 2.5×10^3 cfu/ ? for Candida albicans, Candida glabrata and Cryptococcus neoformans species, 195 ? /well). […] The compound-treated fungal cells were incubated in a 35° C. incubator for 48 hours (Candida species) and for 72 hours (C. neoformans and Trichophyton species), respectively.

[2] = test system: C. albicans 12-99 (Mutant); settings: 35° C., 48 hours
Procedure: as §1

[3] = test system: C. albicans ATCC90028 (WT); settings: 35° C., 48 hours; n = 30
Procedure: as §1

C. glabrata [4] = settings: 35° C., 48 hours; n = 30
Procedure: as §1

C. neoformans [5] = settings: 35° C., 72 hours; n = 10
Procedure: as §1

C. tropicalis = settings: 35° C., 48 hours
Procedure: as §1

[6] = test system: T. mentagrophytes (KCCM60449); settings: 35° C., 72 hours
Procedure: as §1

T. rubrum (KCCM60443) = settings: 35° C., 72 hours
Procedure: as §1

T. rubrum (KCCM60450) = settings: 35° C., 72 hours
Procedure: as §1

B. cereus (+) = assay: Antibacterial MIC test (CLSI); format: cell-based; settings: MHB liquid medium, 37° C., 24 hours
Procedure: (§2) The MIC test was conducted in accordance CLSI guidelines. […] As a positive control, Nofloxacin and Vancomycin were used.

B. coagulans (+) = assay: Antibacterial MIC test (CLSI); format: cell-based; settings: MHB liquid medium, 37° C., 24 hours
Procedure: as §2

B. subtilis (+) = assay: Antibacterial MIC test (CLSI); format: cell-based; settings: MHB liquid medium, 37° C., 24 hours
Procedure: as §2

E. coli (−) = assay: Antibacterial MIC test (CLSI); format: cell-based; settings: MHB liquid medium, 37° C., 24 hours
Procedure: as §2

L. monocytogenes (+) = assay: Antibacterial MIC test (CLSI); format: cell-based; settings: MHB liquid medium, 37° C., 24 hours
Procedure: as §2

M. luteus (+) = assay: Antibacterial MIC test (CLSI); format: cell-based; settings: MHB liquid medium, 37° C., 24 hours
Procedure: as §2

P. acnes (+) = assay: Antibacterial MIC test (CLSI); format: cell-based; settings: MHB liquid medium, 37° C., 24 hours
Procedure: as §2

S. aureus enterica (−) = assay: Antibacterial MIC test (CLSI); format: cell-based; settings: MHB liquid medium, 37° C., 24 hours
Procedure: as §2

S. aureus (+) = settings: MHB liquid medium, 37° C., 24 hours
S. epidermidis (+) = settings: MHB liquid medium, 37° C., 24 hours
MRSA = assay: Antibacterial MIC test (CLSI); format: cell-based, Methicillin-resistant Staphylococcus aureus; settings: MHB liquid medium, 37° C., 24 hours
Procedure: as §2

C. neoformans [7] = settings: RPMI1640 broth, 35° C., 72 hours, visual reading; expressed as a range value
Procedure: (§3) An in vitro antifungal susceptibility test was performed in accordance with the US Clinical and Laboratory Standards Institute (CLSI) guidelines to measure the degree of antifungal activity of the compounds synthesized in the Preparation Examples against opportunistic pathogenic fungi. […] The MIC value (μg/ ? ) is expressed as a range value. Specifically, Candida species and Cryptococcus neoformans were incubated in a Sabouraud dextrose agar (SDA) (Sigma-Aldrich) solid medium for 24 and 48 hours, respectively to obtain single colonies. The obtained single colonies were suspended in 0.85% physiological saline to prepare fungal cell suspension (1 to 5×10^6 cells/ ? ). Fungal cells 2000-fold diluted in RPMI1640 broth (Sigma-Aldrich) were seeded on 96-well plates (5×10^2 to 2.5×10^3 cells/ ? , 195 ? /well). Serial two-fold dilutions (128, 64, 32, 16, 8, 4, 2, 1, and 0.5 μg/ ? ) of compounds were prepared by diluting the compounds synthesized according to the above preparation examples. Then, 5 ? from each dilution was added to the well of the 96-well plate containing fungal cell suspension to give a final suspension of 200 ? per well. […] As a positive control, amphotericin B (AMB), which is highly toxic to the human body but is known as a representative antifungal agent, was used.

C. albicans = settings: RPMI1640 broth, 35° C., 48 hours, visual reading; expressed as a range value
C. glabrata [8] = settings: RPMI1640 broth, 35° C., 48 hours, visual reading; expressed as a range value
A. fumigatus [9] = settings: visual reading; expressed as a range value
Procedure: as §3

Candida albicans = settings: 50 or 100 μg/mL for 30 minutes; versus Efinaconazole, Tavaborole, Terbinafine, Ciclopirox
Procedure: To evaluate fast-acting effects of Compound 74, the growth of Candida albicans was studied by treating Candida albicans with Compound 74 or commercially available drug of Efinaconazole, Tavaborole, Terbinafine, or Ciclopirox at the same concentration for the same period of time. Specifically, Candida albicans were prepared at a concentration of 2.5×10^3 cfu/ ? and aliquoted at 195 ? /well into 96-well plates. Subsequently, Candida albicans cells in 96-well plate were treated with Compound 74 or each of the commercially available comparative drugs (50 μg/ ? or 100 μg/ ? ) for 30 minutes, respectively. Next, Compound 74 treated fungal cells were seeded on YPD media (Sigma-Aldrich), and the number of single colonies grown was counted.

T. rubrum = settings: 0.5- to 16-fold MIC, 0 to 120 hours; versus Efinaconazole, Amorolfine, Terbinafine, Ciclopirox, Amphotericin B
Procedure: Specifically, T. rubrum cells (6×10^3 cfu/ ? ) were prepared and aliquoted at 195 ? /well into 96-well plates.

Candida albicans biofilm = settings: 4, 8, 16 and 32 μg/mL, 24 hours after treatment; versus Caspofungin, Amphotericin B, Efinaconazole
interleukin 6 (IL-6) = settings: RAW264.7 cells, compound 8 μg/mL 1 hour, then LPS 1 μg/mL 24 hours; relative to LPS without compound
Procedure: The anti-inflammatory effects of the compounds of the present invention were evaluated using RAW264.7 cells which were stimulated to secrete interleukin 6 (IL-6). Specifically, RAW264.7 cells (obtained from Korean Cell Line Bank), mouse macrophages, were inoculated into a 12-well plate at 5×10^5 cells/well and incubated at 37° C. for 16 to 24 hours. The compounds of the present invention were added to the cell culture medium containing RAW264.7 cells incubated as above at a final concentration of 0 or 8 μg/ ? , and then incubated at 37° C. for 1 hour. Next, lipopolysaccharide (LPS, Sigma-Aldrich, USA) was further added to the medium at a final concentration of 1 μg/ ? , and the medium was incubated at 37° C. for 24 hours to induce IL-6 expression. Thereafter, IL-6 levels produced by the RAW264.7 cells were measured using an ELISA kit (Komabiotech Inc. Korea) according to the manufacturer's instructions. In Table 9, IL6 levels were expressed as a relative percentage (%) between LPS-induced IL6 levels after the treatment with the compound of the present invention and LPS-induced IL6 levels without the treatment of the compound of the present invention.

CCCC(N)C(=O)NCCc1ccc(-c2ccc(Cl)c(Cl)c2)cc1.Cl (racemic) [Compound 74, (R)/(S)-2-amino-N-(2-(3′,4′-dichloro-[1,1′-biphenyl]-4-yl)ethyl)pentanamide hydrochloride]
MIC A. fumigatus (A. fumigatus [1]): 2~8 μg/mL
MIC C. albicans 12-99 (Mutant) [2]: 2~8 μg/mL
MIC C. albicans ATCC90028 (WT) [3]: 2~4 μg/mL
MIC C. glabrata (C. glabrata [4]): 2~4 μg/mL
MIC C. neoformans (C. neoformans [5]): 2~4 μg/mL
MIC C. tropicalis (C. tropicalis): 2~4 μg/mL
MIC T. mentagrophytes (KCCM60449) [6]: 2~8 μg/mL
MIC T. rubrum (KCCM60443) (T. rubrum (KCCM60443)): 1~4 μg/mL
MIC T. rubrum (KCCM60450) (T. rubrum (KCCM60450)): 2~4 μg/mL
MIC B. cereus (+) (B. cereus (+)): 16 µg/mL
MIC B. coagulans (+) (B. coagulans (+)): 2 µg/mL
MIC B. subtilis (+) (B. subtilis (+)): 8 µg/mL
MIC E. coli (−) (E. coli (−)): 32 µg/mL
MIC L. monocytogenes (+) (L. monocytogenes (+)): 8 µg/mL
MIC M. luteus (+) (M. luteus (+)): 8 µg/mL
MIC P. acnes (+) (P. acnes (+)): 8 µg/mL
MIC S. aureus enterica (−) (S. aureus enterica (−)): >32 µg/mL
MIC S. aureus (+) (S. aureus (+)): 8 µg/mL
MIC S. epidermidis (+) (S. epidermidis (+)): 8 µg/mL
MIC MRSA (MRSA): 8 µg/mL
MIC (μg/mL) C. neoformans (C. neoformans [7]): 0.5~4 μg/mL
MIC (μg/mL) C. albicans (C. albicans): 0.5~4 μg/mL
MIC (μg/mL) C. glabrata (C. glabrata [8]): 0.5~4 μg/mL
MIC (μg/mL) A. fumigatus (A. fumigatus [9]): 0.5~4 μg/mL
fast-acting effects (number of single colonies grown, FIG. 1) (Candida albicans): excellent fast-acting effects
fungicidal effects (number of single colonies grown, FIG. 2) (T. rubrum): exhibited fungicidal effects at the MIC concentration
biofilm disruption (growth of Candida albicans, FIG. 3) (Candida albicans biofilm): remarkably excellent growth inhibitory effects on Candida albicans through biofilm disruption

CCCC(NC)C(=O)NCc1ccc(-c2ccc(C(F)(F)F)cc2)cc1.Cl (racemic) [Compound 52, (R)/(S)-2-(methylamino)-N-((4′-(trifluoromethyl)-[1,1′-biphenyl]-4-yl)methyl)pentanamide hydrochloride]
Relative IL-6 levels (%) (interleukin 6 (IL-6)): 13%
MIC (μg/mL) C. neoformans (C. neoformans [7]): 4~16 μg/mL
MIC (μg/mL) C. albicans (C. albicans): 8~32 μg/mL
MIC (μg/mL) C. glabrata (C. glabrata [8]): 8~32 μg/mL
MIC (μg/mL) A. fumigatus (A. fumigatus [9]): 8~32 μg/mL

CCCC(N)C(=O)NCCc1ccc(-c2ccc(F)c(F)c2)cc1.Cl (racemic) [Compound 82, (R)/(S)-2-amino-N-(2-(3′,4′-difluoro-[1,1′-biphenyl]-4-yl)ethyl)pentanamide hydrochloride]
Relative IL-6 levels (%) (interleukin 6 (IL-6)): 3%
MIC (μg/mL) C. neoformans (C. neoformans [7]): 4~16 μg/mL
MIC (μg/mL) C. albicans (C. albicans): 4~16 μg/mL
MIC (μg/mL) C. glabrata (C. glabrata [8]): 4~16 μg/mL
MIC (μg/mL) A. fumigatus (A. fumigatus [9]): 4~16 μg/mL

CCCCC(N)C(=O)NCc1ccc(-c2ccc(C(F)(F)F)cc2)cc1.Cl (racemic) [Compound 48, (R)/(S)-2-amino-N-((4′-(trifluoromethyl)-[1,1′-biphenyl]-4-yl)methyl)hexanamide hydrochloride]
Relative IL-6 levels (%) (interleukin 6 (IL-6)): 67%
MIC (μg/mL) C. neoformans (C. neoformans [7]): 4~16 μg/mL
MIC (μg/mL) C. albicans (C. albicans): 4~16 μg/mL
MIC (μg/mL) C. glabrata (C. glabrata [8]): 4~16 μg/mL
MIC (μg/mL) A. fumigatus (A. fumigatus [9]): 4~16 μg/mL

CCCC(N)C(=O)NCc1ccc(-c2ccc(C(F)(F)F)cc2)cc1.Cl (racemic) [Compound 47, (R)/(S)-2-amino-N-((4′-(trifluoromethyl)-[1,1′-biphenyl]-4-yl)methyl)pentanamide hydrochloride]
Relative IL-6 levels (%) (interleukin 6 (IL-6)): 12%
MIC (μg/mL) C. neoformans (C. neoformans [7]): 4~16 μg/mL
MIC (μg/mL) C. albicans (C. albicans): 8~32 μg/mL
MIC (μg/mL) C. glabrata (C. glabrata [8]): 8~32 μg/mL
MIC (μg/mL) A. fumigatus (A. fumigatus [9]): 8~32 μg/mL

CCCC(N)C(=O)NCc1ccc(-c2ccc(Cl)c(Cl)c2)cc1.Cl (racemic) [Compound 45, (R)/(S)-2-amino-N-((3′,4′-dichloro-[1,1′-biphenyl]-4-yl)methyl)pentanamide hydrochloride]
Relative IL-6 levels (%) (interleukin 6 (IL-6)): 3%
MIC (μg/mL) C. neoformans (C. neoformans [7]): 2~8 μg/mL
MIC (μg/mL) C. albicans (C. albicans): 8~32 μg/mL
MIC (μg/mL) C. glabrata (C. glabrata [8]): 8~32 μg/mL
MIC (μg/mL) A. fumigatus (A. fumigatus [9]): 8~32 μg/mL

CCCC(C(=O)NCc1ccc(-c2ccc(Cl)c(Cl)c2)cc1)N(C)C (racemic) [Compound 53, (R)/(S)-N-((3′,4′-dichloro-[1,1′-biphenyl]-4-yl)methyl)-2-(dimethylamino)pentanamide]
Relative IL-6 levels (%) (interleukin 6 (IL-6)): 5%
MIC (μg/mL) C. neoformans (C. neoformans [7]): 2~8 μg/mL
MIC (μg/mL) C. albicans (C. albicans): 8~32 μg/mL
MIC (μg/mL) C. glabrata (C. glabrata [8]): 8~32 μg/mL
MIC (μg/mL) A. fumigatus (A. fumigatus [9]): 8~32 μg/mL

CCCC(N)C(=O)NCc1ccc(-c2ccc(OC(F)(F)F)cc2)cc1.Cl (racemic) [Compound 49, (R)/(S)-2-amino-N-((4′-(trifluoromethoxy)-[1,1′-biphenyl]-4-yl)methyl)pentanamide hydrochloride]
Relative IL-6 levels (%) (interleukin 6 (IL-6)): 50%
MIC (μg/mL) C. neoformans (C. neoformans [7]): 4~16 μg/mL
MIC (μg/mL) C. albicans (C. albicans): 8~32 μg/mL
MIC (μg/mL) C. glabrata (C. glabrata [8]): 8~32 μg/mL
MIC (μg/mL) A. fumigatus (A. fumigatus [9]): 8~32 μg/mL

CCCC(N)C(=O)NCCc1ccc(-c2ccc(C(F)(F)F)cc2)cc1.Cl (racemic) [Compound 77, (R)/(S)-2-amino-N-(2-(4′-(trifluoromethyl)-[1,1′-biphenyl]-4-yl)ethyl)pentanamide hydrochloride]
Relative IL-6 levels (%) (interleukin 6 (IL-6)): 5%
MIC (μg/mL) C. neoformans (C. neoformans [7]): 4~16 μg/mL
MIC (μg/mL) C. albicans (C. albicans): 8~32 μg/mL
MIC (μg/mL) C. glabrata (C. glabrata [8]): 8~32 μg/mL
MIC (μg/mL) A. fumigatus (A. fumigatus [9]): 8~32 μg/mL

CCC(N)C(=O)NCCc1ccc(-c2ccc(C(F)(F)F)cc2)cc1.Cl (racemic) [Compound 76, (R)/(S)-2-amino-N-(2-(4′-(trifluoromethyl)-[1,1′-biphenyl]-4-yl)ethyl)butanamide hydrochloride]
MIC B. cereus (+) (B. cereus (+)): 64 µg/mL
MIC B. coagulans (+) (B. coagulans (+)): <4 µg/mL
MIC B. subtilis (+) (B. subtilis (+)): 16 µg/mL
MIC E. coli (−) (E. coli (−)): 16 µg/mL
MIC L. monocytogenes (+) (L. monocytogenes (+)): 16 µg/mL
MIC M. luteus (+) (M. luteus (+)): 16 µg/mL
MIC P. acnes (+) (P. acnes (+)): 16 µg/mL
MIC S. aureus enterica (−) (S. aureus enterica (−)): 32 µg/mL
MIC S. aureus (+) (S. aureus (+)): 32 µg/mL
MIC S. epidermidis (+) (S. epidermidis (+)): 16 µg/mL
MIC MRSA (MRSA): 32 µg/mL
Relative IL-6 levels (%) (interleukin 6 (IL-6)): 9.58%
MIC (μg/mL) C. neoformans (C. neoformans [7]): 8~32 μg/mL
MIC (μg/mL) C. albicans (C. albicans): 16~64 μg/mL
MIC (μg/mL) C. glabrata (C. glabrata [8]): 8~32 μg/mL
MIC (μg/mL) A. fumigatus (A. fumigatus [9]): 8~32 μg/mL

CCCC(NC)C(=O)NCCc1ccc(-c2ccc(C(F)(F)F)cc2)cc1.Cl (racemic) [Compound 87, (R)/(S)-2-(methylamino)-N-(2-(4′-(trifluoromethyl)-[1,1′-biphenyl]-4-yl)ethyl)pentanamide hydrochloride]
Relative IL-6 levels (%) (interleukin 6 (IL-6)): 24%
MIC (μg/mL) C. neoformans (C. neoformans [7]): 4~16 μg/mL
MIC (μg/mL) C. albicans (C. albicans): 4~16 μg/mL
MIC (μg/mL) C. glabrata (C. glabrata [8]): 4~16 μg/mL
MIC (μg/mL) A. fumigatus (A. fumigatus [9]): 4~16 μg/mL
